Laboratory results as given in the supplement of paper PMC11451515.

What was measured:
Experiment in all cases: AUC of viability dose-response curve (% viability x log10 dose units); higher = less sensitive
Settings in all cases: 48 h
[1] = test system: P12-Ichikawa
Outline: (§1)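 Leukemia cells adapted to each medium (500 or 1000 cells/well, 1536-well plates) were exposed to library compounds in DMSO for 48 h at 37°C at 11 threefold doses, 47 μM to 0.79 nM. Luminescence by CellTiter-Glo One was normalised per plate to DMSO and cell-free wells, then fitted with a four-parameter log-logistic curve on log10 dose. Curves above full viability were scaled and quality-control failures removed before area under the curve was integrated by trapezoidal rule.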

[2] = test system: NOMO1
Outline: as §1

[3] = test system: SEM cells
Outline: as §1

[4] = RPMI 5 mM glucose + 10% dialyzed FBS

Structure (SMILES) | AUC of viability dose-response curve ([1]; HPLM + 10% dialyzed FBS) | AUC of viability dose-response curve ([1]; RPMI 5 mM glucose + 10% FBS) | AUC of viability dose-response curve [1, 4] | AUC of viability dose-response curve ([2]; HPLM + 10% dialyzed FBS) | AUC of viability dose-response curve ([2]; RPMI 5 mM glucose + 10% FBS) | AUC of viability dose-response curve [2, 4] | AUC of viability dose-response curve ([3]; HPLM + 10% dialyzed FBS) | AUC of viability dose-response curve ([3]; RPMI 5 mM glucose + 10% FBS) | AUC of viability dose-response curve [3, 4]
CN(C)[S+](=O)([O-])c1ccc2c(c1)C(=Cc1cc3c([nH]1)CCCC3)C(=O)N2 | 467 | 464 | 468 | 467 | 453 | 455 | 462 | 462 | 459
O=C(O)CCC1CCC(c2cc(F)ccc2F)([S+](=O)([O-])c2ccc(Cl)cc2)CC1 (stereo unspecified) | 403 | 412 | 428 | 373 | 357 | 378 | 464 | 470 | 468
C[C@]12COC(=O)C[C@@H]1CC[C@@H]1[C@@H]2CC[C@@]2(C)[C@H]1CC[C@]2(C)O | 457 | 463 | 471 | 472 | 443 | 443 | 451 | 457 | 447
CNc1nc(Nc2ccc(C(=O)N3CCOCC3)cc2OC)ncc1Cl | 448 | 454 | 466 | 434 | 463 | 450 | 434 | 456 | 466
CC[C@H](NC1=C2N=C[NH]C2=NC=N1)C/3=N/C4=C(C(=CC=C4)F)C(=O)N3C5=CC=CC=C5 | 436 | 395 | 401 | 433 | 450 | 432 | 411 | 430 | 442
Cc1nn(Cc2ccccc2Cl)c(C)c1CN(C)CC(O)COc1ccc(Cl)cc1 (stereo unspecified) | 463 | 440 | 435 | 445 | 428 | 436 | 436 | 432 | 430
CN[C@@H]1[C@@H](O)[C@@H](O[C@@H]2[C@@H](O)[C@H](O[C@H]3O[C@H](CN)[C@@H](O)[C@H](O)[C@H]3O)[C@@H](N)C[C@H]2NC(=O)[C@@H](O)CN)OC[C@]1(C)O | 457 | 449 | 411 | 452 | 457 | 440 | 453 | 463 | 468
OC(c1cc(C(F)(F)F)nc2c(C(F)(F)F)cccc12)C1CCCCN1 (stereo unspecified) | 468 | 458 | 473 | 447 | 453 | 452 | 455 | 453 | 455
CN(C)C1CCN(C(=O)c2ccc(NC(=O)Nc3nc(N4CCOCC4)nc(N4CCOCC4)n3)cc2)CC1 | 340 | 270 | 275 | 271 | 296 | 272 | 252 | 248 | 247
CC1(C)O[C@@H]2C[C@H]3[C@@H]4C[C@H](F)C5=CC(=O)C=C[C@]5(C)[C@@]4(F)[C@@H](O)C[C@]3(C)[C@]2(C(=O)CO)O1 | 324 | 303 | 272 | 460 | 460 | 457 | 305 | 314 | 291
CC(C)(C)OC(=O)N[C@H]1CCCCC/C=C\[C@@H]2C[C@@]2(C(=O)N[S+](=O)([O-])C2CC2)NC(=O)[C@@H]2C[C@@H](OC(=O)N3Cc4cccc(F)c4C3)CN2C1=O | 468 | 467 | 459 | 457 | 468 | 472 | 401 | 441 | 466
CC(C)CNc1ccnc(NCc2csc(-c3ccccc3)n2)n1 | 440 | 436 | 442 | 414 | 456 | 446 | 447 | 447 | 458
CC1CNc2c(cccc2[S+](=O)([O-])N[C@@H](CCCNC(=N)N)C(=O)N2CC[C@@H](C)C[C@@H]2C(=O)O)C1 (stereo partly specified) | 468 | 473 | 472 | 435 | 465 | 465 | 453 | 450 | 462
C[C@H]1COC2=C3N1\C=C(C(O)=O)/C(=O)C3=CC(=C2N4CCN(C)CC4)F | 427 | 429 | 416 | 426 | 454 | 441 | 398 | 373 | 420
